Laboratory results reported in patent publication US5081121A, “4(1H)-quinolone derivatives” (priority 1988, dated 1992).
Read-outs that look alike come from different tables or passages of the source.

Tested on: left atrial muscle
Assay: Test Method 1: enhancement of contracting force of left atrial muscle extirpated from a guinea pig (electrically stimulated at 1 Hz)
Format: cell-based
Details: Krebs-Henseleit solution 32° C.; for EC20: read-out: EC20 (molar concentration for enhancing the left atrial muscle contracting force to the level of 20%); for EC50: read-out: EC50 (molar concentration for enhancing the left atrial muscle contracting force to the level of 50%); for EC100: read-out: EC100 (molar concentration for enhancing the left atrial muscle contracting force to the level of 100%)
Protocol: The drug according to the present invention was evaluated with reference to the physiological activities by means of a method using an atrial muscle extirpated from a guinea pig.
Male guinea pigs having a body weight of 300-500 g were made swooned by striking his head and were bleeded to death. The heart was extirpated and the right and left atrial muscles were cut off. The tops of each atrial muscle were fixed with cerrefines. The muscle was suspended into an organ-bath in which a Krebs-Henseleit solution (at 32° C.) was filled, and a 95% O2 -5% CO2 gas was flown through the bath. The left atrial muscle was stimulated electrically at a frequency of 1 Hz to stabilize the contracting force of the left atrial muscle. Then, the compounds according to the present invention represented by the general formulae were added to the organ-bath. As for the right atrial muscle, after the pulsation was stabilized, the compounds according to the present invention were added in the organ-bath in the same manner as described above.
The compounds according to the present invention represented by the aforementioned general formulae enhanced the left atrial muscle contracting force dependent on their concentrations. The drug concentrations for enhancing the left atrial muscle contracting force to the levels of 20%, 50% and 100%, respectively are listed in Table 2. EC20, EC50 and EC100 indicate the molar concentration for enhancing the left atrial muscle contracting force to the levels of 20%, 50% and 100%, respectively. The enhancing rates of the pulsation of the right atrial muscle are also listed within parentheses. The minus values in parentheses indicate that the pulsation of the right atrial muscle is decreased.
As a control drug, theophylline ([…].

EC50 (Cavia porcellus) | EC50 | Compound | EC20 (Cavia porcellus) | EC100 (Cavia porcellus) | EC20 (molar concentration for enhancing the left atrial muscle contracting force to the level of 20%) | EC100 (molar concentration for enhancing the left atrial muscle contracting force to the level of 100%)
178 µM |  | CCn1cc(C(=O)N2CCN(c3ccc([N+](=O)[O-])cc3)CC2)c(=O)c2cc(OC)c(OC)cc21 [Compound 110, 6,7-dimethoxy-1-ethyl-3-{1-[4-(4-nitrophenyl)piperazinyl]carbonyl}-4(1H)-quinolone] | 105 µM |  |  | 
374 µM |  | O=c1cc(C2CC2)[nH]c2ccccc12 [Compound 96, 2-cyclopropyl-4(1H)-quinolone] | 123 µM |  |  | 
108 µM |  | CCOc1ccc2c(c1)c(=O)ccn2CC [Compound 74, 6-ethoxy-1-ethyl-4(1H)-quinolone] | < 100 µM | 546 µM |  | 
394 µM |  | COCCOc1cc2[nH]ccc(=O)c2cc1OC [Compound 55, 6-methoxy-7-(2-methoxy)ethoxy-4(1H)-quinolone] | 132 µM |  |  | 
106 µM |  | CCOc1cc2c(=O)cc[nH]c2cc1OC [Compound 48, 6-ethoxy-7-methoxy-4(1H)-quinolone] | 12.6 µM | 646 µM |  | 
107 µM |  | CCn1ccc(=O)c2c(O)ccc(C)c21 [Compound 61, 1-ethyl-5-hydroxy-8-methyl-4(1H)-quinolone] | < 100 µM |  |  | 
657 µM |  | COc1cc2c(=O)c(C(=O)O)cn(C)c2c(C)c1C [Compound 89, 3-carboxyl-6-methoxy-1,7,8-trimethyl-4(1H)-quinolone] | < 100 µM |  |  | 
126 µM |  | CCn1cc(C(=O)N2CCN(c3ccccc3OC)CC2)c(=O)c2cc(C)ccc21 [Compound 108, 1-ethyl-3-{1-[4-(2-methoxyphenyl)piperazinyl]carbonyl}-6-methyl-4(1H)-quinolone] | 44.2 µM |  |  | 
202 µM |  | CCOc1cc2c(=O)c(C(=O)O)cn(CC)c2c(C)c1C [Compound 88, 3-carboxyl-7,8-dimethyl-6-ethoxy-1-ethyl-4(1H)-quinolone] | < 100 µM | 856 µM |  | 
363 µM |  | CCOC(=O)c1c[nH]c2c(S(=O)(=O)c3ccccc3)cccc2c1=O [Compound 83, 3-ethoxycarbonyl-8-phenylsulfonyl-4(1H)-quinolone] | 19.5 µM |  |  | 
 | 63.1 µM | C/C=C/Cc1c(O)c(OC)cc2c(=O)cc[nH]c12 [Compound 72, 8-(2-trans-butenyl)-7-hydroxy-6-methoxy-4(1H)-quinolone] |  |  | 35.5 µM | 211 µM
112 µM |  | CCn1ccc(=S)c2cc3c(cc21)OCO3 [Compound 63] | 42.2 µM |  |  | 
234 µM |  | O=c1cc[nH]c2ccc(CCO)cc12 [Compound 64, 6-(2-hydroxy)ethyl-4(1H)-quinolone] | 157 µM | 495 µM |  | 
19.5 µM |  | CCCCn1ccc(=O)c2cc(OC)c(OCC)cc21 [Compound 68, 1-n-butyl-7-ethoxy-6-methoxy-4(1H)-quinolone] | 2.82 µM |  |  | 
< 100 µM |  | COc1cc2[nH]c(-c3ccco3)cc(=O)c2cc1OC [Compound 94, 6,7-dimethoxy-2-(2-furyl)-4(1H)-quinolone] | < 100 µM | 417 µM |  | 
405 µM |  | COCOc1cc2[nH]ccc(=O)c2cc1OC [Compound 56, 6-methoxy-7-methoxymethoxy-4(1H)-quinolone] | 114 µM |  |  | 
327 µM |  | CCn1cc(C(=O)O)c(=O)c2c(C)cccc21 [Compound 87, 3-carboxyl-1-ethyl-5-methyl-4(1H)-quinolone] | < 100 µM |  |  | 

EC50 (Cavia porcellus) | EC50 | Compound | EC20 (Cavia porcellus) | EC100 (Cavia porcellus) | EC20 (molar concentration for enhancing the left atrial muscle contracting force to the level of 20%) | EC100 (molar concentration for enhancing the left atrial muscle contracting force to the level of 100%)
221 µM |  | COc1cc2[nH]cc(C(=O)N3CCC(c4ccccc4)CC3)c(=O)c2cc1OC [Compound 105, 6,7-dimethoxy-3-(4-phenylpiperidinyl)carbonyl-4(1H)-quinolone] | < 100 µM |  |  | 
462 µM |  | CCOc1cc2c(cc1OC)c(=O)ccn2CC(C)C [Compound 69, 1-i-butyl-7-ethoxy-6-methoxy-4(1H)-quinolone] | 4.32 µM |  |  | 
84.1 µM |  | CCOc1cc2c(=O)cc(C3CC3)[nH]c2cc1OC [Compound 119, 2-cyclopropyl-6-ethoxy-7-methoxy-4(1H)-quinolone] | 37.6 µM |  |  | 
159 µM |  | C=CCc1cccc2c(=O)cc[nH]c12 [Compound 70, 8-(2-propenyl)-4(1H)-quinolone] | < 100 µM |  |  | 
54.3 µM |  | Cc1cc(Cl)cc2c(=O)cc[nH]c12 [Compound 71, 6-chloro-8-methyl-4(1H)-quinolone] | 12.3 µM |  |  | 
78.5 µM |  | COc1cc(SC)c2[nH]ccc(=O)c2c1 [Compound 30, 6-methoxy-8-methylsufenyl-4(1H)-quinolone] | 6.92 µM | 881 µM |  | 
19.3 µM |  | CCOc1cc2[nH]ccc(=O)c2cc1OCC [Compound 10, 6,7-diethoxy-4(1H)-quinolone] | 1.88 µM | 116 µM |  | 
73.3 µM |  | CCOC(=O)c1c[nH]c2c(OC)cc(OCC)cc2c1=O [Compound 76, 6-ethoxy-3-ethoxycarbonyl-8-methoxy-4(1H)-quinolone] | 38.9 µM | 305 µM |  | 
248 µM |  | CCn1ccc(=O)c2ccc(C)cc21 [Compound 57, 1-ethyl-7-methyl-4(1H)-quinolone] | < 100 µM |  |  | 
465 µM |  | CCCn1cc(C(=O)O)c(=O)c2cc(OC)c(OCC)cc21 [Compound 93, 3-carboxyl-7-ethoxy-6-methoxy-1-n-propyl-4(1H)-quinolone] | 376 µM |  |  | 
35.5 µM |  | COc1cc2[nH]ccc(=O)c2cc1OC [Compound 6, 6,7-dimethoxy-4(1H)-quinolone] | 10 µM | 234 µM |  | 
274 µM |  | N#CCc1ccc2[nH]ccc(=O)c2c1 [Compound 45, 6-cyanomethyl-4(1H)-quinolone] | < 100 µM | 510 µM |  | 
345 µM |  | CCn1cc(C(=O)O)c(=O)c2cc(C)ccc21 [Compound 90, 3-carboxyl-1-ethyl-6-methyl-4(1H)-quinolone] | 181 µM | 394 µM |  | 
279 µM |  | CCn1ccc(=O)c2cc3c(cc21)OCO3 [Compound 60, 1-ethyl-6,7-methylenedioxy-4(1H)-quinolone] | < 100 µM |  |  | 
< 100 µM |  | CCOc1cc(OC)cc2c(=O)cc[nH]c12 [Compound 47, 8-ethoxy-6-methoxy-4(1H)-quinolone] | < 100 µM | 200 µM |  | 
135 µM |  | CCOCCOC(=O)c1c[nH]c2c(OC)ccc(OCC)c2c1=O [Compound 79, 5-ethoxy-3-[(2-ethoxy)ethoxycarbonyl]-8-methoxy-4(1H)-quinolone] | < 100 µM | 680 µM |  | 

Compound | EC50 (Cavia porcellus) | EC50 | EC20 (Cavia porcellus) | EC100 (Cavia porcellus) | EC20 (molar concentration for enhancing the left atrial muscle contracting force to the level of 20%) | EC100 (molar concentration for enhancing the left atrial muscle contracting force to the level of 100%)
CCOC(=O)c1cn(CC)c2c(C)ccc(OC(C)=O)c2c1=O [Compound 82, 5-acetoxy-3-ethoxycarbonyl-1-ethyl-8-methyl-4(1H)-quinolone] | 168 µM |  | < 100 µM |  |  | 
CCCCOc1cc2[nH]c(C3CC3)cc(=O)c2cc1OC [Compound 115, 7-n-butoxy-2-cyclopropyl-6-methoxy-4(1H)-quinolone] | 81.3 µM |  | 15.3 µM | 202 µM |  | 
O=c1cc[nH]c2cc(N3CCNCC3)ccc12 [Compound 67, 7-piperazinyl-4(1H)-quinolone] | 211 µM |  | 46.8 µM | 944 µM |  | 
